Measured values published in doi:10.1101/2025.09.30.679465v1, “Large-Scale Structure-Based Virtual Screening Identifies Diverse KNa1.1 (KCNT1) Potassium Channel Inhibitors” (biorxiv, 2025).
Residue numbers refer to the chain shown, from its start.

Target: T1, KNa1.1 WT/Y796H (Homo sapiens, UniProt Q5JUK3, Y796H)
T1 construct: gene KCNT1; full-length WT KNa1.1 and Y796H KNa1.1 subunits joined by self-cleaving T2A linker in pcDNA6
T1 sequence (Q5JUK3 1-1230): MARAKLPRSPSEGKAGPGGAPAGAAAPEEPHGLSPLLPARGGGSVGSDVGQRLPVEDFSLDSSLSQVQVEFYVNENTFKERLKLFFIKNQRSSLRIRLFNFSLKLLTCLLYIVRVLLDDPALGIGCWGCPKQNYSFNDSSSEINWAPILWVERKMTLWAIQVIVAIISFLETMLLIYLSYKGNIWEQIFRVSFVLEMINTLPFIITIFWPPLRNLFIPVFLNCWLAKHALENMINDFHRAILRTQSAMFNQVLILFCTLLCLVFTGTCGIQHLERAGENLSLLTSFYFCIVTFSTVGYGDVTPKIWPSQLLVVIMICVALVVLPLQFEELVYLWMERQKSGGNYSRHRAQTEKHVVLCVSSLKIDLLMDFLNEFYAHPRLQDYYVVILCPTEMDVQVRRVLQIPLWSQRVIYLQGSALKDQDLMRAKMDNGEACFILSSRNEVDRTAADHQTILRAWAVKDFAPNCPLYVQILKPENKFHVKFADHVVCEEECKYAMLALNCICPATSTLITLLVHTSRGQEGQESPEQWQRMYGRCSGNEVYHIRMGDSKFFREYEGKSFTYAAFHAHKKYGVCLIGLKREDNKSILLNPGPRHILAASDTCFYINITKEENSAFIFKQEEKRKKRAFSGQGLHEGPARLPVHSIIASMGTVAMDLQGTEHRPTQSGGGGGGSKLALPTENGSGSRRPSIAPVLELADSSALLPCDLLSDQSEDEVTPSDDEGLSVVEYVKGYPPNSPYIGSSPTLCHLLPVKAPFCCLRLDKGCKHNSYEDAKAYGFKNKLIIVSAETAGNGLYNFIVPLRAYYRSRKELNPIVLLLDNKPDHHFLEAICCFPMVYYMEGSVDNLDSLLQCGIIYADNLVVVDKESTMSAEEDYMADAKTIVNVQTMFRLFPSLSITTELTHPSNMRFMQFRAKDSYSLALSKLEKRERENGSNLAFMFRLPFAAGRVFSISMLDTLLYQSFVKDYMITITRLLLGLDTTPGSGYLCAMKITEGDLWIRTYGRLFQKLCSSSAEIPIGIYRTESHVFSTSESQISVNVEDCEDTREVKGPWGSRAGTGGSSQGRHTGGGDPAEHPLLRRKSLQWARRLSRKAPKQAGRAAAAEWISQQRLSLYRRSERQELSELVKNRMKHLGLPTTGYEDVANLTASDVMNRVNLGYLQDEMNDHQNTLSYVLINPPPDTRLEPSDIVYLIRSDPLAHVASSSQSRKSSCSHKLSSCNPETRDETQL
T1 sequence (Q5JUK3 1-1230 Y796H): T1 sequence (Q5JUK3 1-1230) with Y796H
Assay: thallium flux (Thallos AM), HEK293
Format: cell-based
Source text: thallium flux (Thallos AM), HEK293 on KNa1.1 WT/Y796H

IC50: 4.7 µM
SMILES: CC(c1ccccc1)N1CCCN(c2cccc(NC(=O)Nc3cccc(Cl)c3)c2)C1=O (stereo not shown) [compound 1, Cpd1]
